ChEMBL document CHEMBL3885861, “Open TG-GATES”

Organism: Rattus norvegicus
Assay: Open TG-GATES - Regimen: Daily Repeat
Assay type: toxicity, organism-based, Sprague-Dawley
Design: regimen Daily Repeat, gender Male, age 6 weeks
Conditions: in vivo, po, route gavage; for TP / gamma-GTP / ALP / ALT / AST / BUN / CRE / DBIL / GLC / IP / K / LDH / Na / PL / RALB / TBIL / TC / TG: tissue Plasma; for APTT / Bas / Eos / Fbg / Hb / Ht / Lym / MCH / MCHC / MCV / Mono / Neu / PT / Plat / RBC / Ret / WBC: tissue Blood; for KIDNEY_L / KIDNEY_R / KIDNEY_TOTAL: tissue Kidney; for LIVER: tissue Liver
[1] = 45 mg/kg, […], dose level Low, time 28 day
[2] = 150 mg/kg, 72 h, dose level Middle, time 3 day
[3] = 150 mg/kg, […], dose level Middle, time 7 day
[4] = 150 mg/kg, […], dose level Middle, time 14 day
[5] = 150 mg/kg, […], dose level Middle, time 28 day

In the case of CC(CCc1ccccc1)NCC(O)c1ccc(O)c(C(N)=O)c1 (centres undefined) [LABETALOL], the TP [1] is reported as 6.4 g/dL, the gamma-GTP [1] is reported as 1 IU/L and the TERMINAL_BW [2] is reported as 253.6 g. For the same molecule, the APTT [2] was 16.1 s, the Bas [2] was 0.2% and the Eos [2] was 0.8%. The Fbg [2] was 278 mg/dL, the Hb [2] was 13.8 g/dL and the Ht [2] was 40.7%. The Lym [2] was 75%, the MCH [2] was 21.7 pg and the MCHC [2] was 33.9%. It also gave an MCV [2] of 64 fL, a Mono [2] of 2.6% and a Neu [2] of 21.2%. For the same molecule, the PT [2] was 12.9 s, the Plat [2] was 117.8 x10_4/uL and the RBC [2] was 636.6 x10_4/ul. For the same molecule, the Ret [2] was 7.2%, the WBC [2] was 104.5 x10_2/uL and the KIDNEY_L [2] was 1 g. For the same molecule, the KIDNEY_R [2] was 1 g, the KIDNEY_TOTAL [2] was 2 g and the LIVER [2] was 11.7 g. It also gave an ALP [2] of 2122.4 IU/L, an ALT [2] of 47 IU/L and an AST [2] of 76.8 IU/L. The BUN [2] was 16.6 mg/dL, the CRE [2] was 0.2 mg/dL and the DBIL [2] was 0.018 mg/dL. It also gave a GLC [2] of 180 mg/dL, an IP [2] of 7.8 mg/dL and a K [2] of 4 meq/L. For the same molecule, the LDH [2] was 65.6 IU/L, the Na [2] was 145 meq/L and the PL [2] was 155.4 mg/dL. It also gave an RALB [2] of 2.7 g/dL, a TBIL [2] of 0.028 mg/dL and a TC [2] of 84.8 mg/dL. For the same molecule, the TG [2] was 120.6 mg/dL, the TP [2] was 5.9 g/dL and the gamma-GTP [2] was 1 IU/L. The TERMINAL_BW [3] was 288.5 g, the TERMINAL_BW [4] was 339.7 g and the TERMINAL_BW [5] was 424.9 g. The APTT [3] was 17.3 s, the Bas [3] was 0% and the Eos [3] was 1%. For the same molecule, the Fbg [3] was 310.4 mg/dL, the Hb [3] was 14.8 g/dL and the Ht [3] was 42.8%. The Lym [3] was 73.4%, the MCH [3] was 21.3 pg and the MCHC [3] was 34.5%. It also gave an MCV [3] of 61.9 fL, a Mono [3] of 2.6% and a Neu [3] of 22.2%. For the same molecule, the PT [3] was 12.9 s, the Plat [3] was 110.9 x10_4/uL and the RBC [3] was 693.2 x10_4/ul. The Ret [3] was 5.2%, the WBC [3] was 92.4 x10_2/uL and the APTT [4] was 17.1 s. For the same molecule, the Bas [4] was 0.2%, the Eos [4] was 1.2% and the Fbg [4] was 300.4 mg/dL. For the same molecule, the Hb [4] was 14.9 g/dL, the Ht [4] was 42.9% and the Lym [4] was 71.2%. The MCH [4] was 20.6 pg, the MCHC [4] was 34.6% and the MCV [4] was 59.5 fL. It also gave a Mono [4] of 2.2%, a Neu [4] of 24.8% and a PT [4] of 13.1 s. The RBC [4] was 721.4 x10_4/ul, the Ret [4] was 4.3% and the WBC [4] was 99.2 x10_2/uL. It also gave an APTT [5] of 19 s, a Bas [5] of 0.4% and an Eos [5] of 1.4%. It also gave a Fbg [5] of 286.4 mg/dL, a Hb [5] of 15.6 g/dL and a Ht [5] of 44.3%. The Lym [5] was 71.8%, the MCH [5] was 19.8 pg and the MCHC [5] was 35.2%. The MCV [5] was 56.1 fL, the Mono [5] was 3% and the Neu [5] was 23.2%. The PT [5] was 13.5 s, the Plat [5] was 96.8 x10_4/uL and the RBC [5] was 789.8 x10_4/ul. For the same molecule, the Ret [5] was 2.1%, the WBC [5] was 110.3 x10_2/uL and the KIDNEY_L [3] was 1.2 g. It also gave a KIDNEY_R [3] of 1.2 g, a KIDNEY_TOTAL [3] of 2.4 g and a KIDNEY_L [4] of 1.2 g. It also gave a KIDNEY_R [4] of 1.2 g, a KIDNEY_TOTAL [4] of 2.4 g and a KIDNEY_L [5] of 1.4 g. For the same molecule, the KIDNEY_R [5] was 1.4 g, the KIDNEY_TOTAL [5] was 2.8 g and the LIVER [3] was 12.6 g. It also gave an LIVER [4] of 13.3 g, an LIVER [5] of 15.6 g and an ALP [3] of 1724.6 IU/L. It also gave an ALT [3] of 51 IU/L, an AST [3] of 76 IU/L and a BUN [3] of 14.8 mg/dL. It also gave a CRE [3] of 0.2 mg/dL, a DBIL [3] of 0.02 mg/dL and a GLC [3] of 183.2 mg/dL. It also gave a K [3] of 3.8 meq/L, an LDH [3] of 68.4 IU/L and a Na [3] of 142.8 meq/L. It also gave a PL [3] of 150.8 mg/dL, an RALB [3] of 2.8 g/dL and a TBIL [3] of 0.034 mg/dL. It also gave a TC [3] of 78 mg/dL, a TG [3] of 141.2 mg/dL and a TP [3] of 6.1 g/dL. It also gave a gamma-GTP [3] of 1 IU/L, an ALP [4] of 1359.8 IU/L and an ALT [4] of 50.6 IU/L. For the same molecule, the AST [4] was 74.4 IU/L, the BUN [4] was 17.2 mg/dL and the CRE [4] was 0.2 mg/dL. For the same molecule, the DBIL [4] was 0.012 mg/dL, the GLC [4] was 174.6 mg/dL and the IP [4] was 8.6 mg/dL. For the same molecule, the K [4] was 3.9 meq/L, the LDH [4] was 58.6 IU/L and the Na [4] was 145.4 meq/L. The PL [4] was 148.6 mg/dL, the RALB [4] was 2.8 g/dL and the TBIL [4] was 0.026 mg/dL. The TC [4] was 81.6 mg/dL, the TG [4] was 88.8 mg/dL and the TP [4] was 6.3 g/dL. For the same molecule, the gamma-GTP [4] was 1.4 IU/L, the ALP [5] was 865.6 IU/L and the ALT [5] was 60.2 IU/L. For the same molecule, the AST [5] was 78.2 IU/L, the BUN [5] was 18.4 mg/dL and the CRE [5] was 0.3 mg/dL. It also gave a DBIL [5] of 0.026 mg/dL, a GLC [5] of 185.6 mg/dL and an IP [5] of 7.3 mg/dL. The K [5] was 3.6 meq/L, the LDH [5] was 69.4 IU/L and the Na [5] was 143.4 meq/L. The PL [5] was 132 mg/dL, the RALB [5] was 2.8 g/dL and the TBIL [5] was 0.038 mg/dL. It also gave a TC [5] of 74 mg/dL, a TG [5] of 113 mg/dL and a TP [5] of 6.2 g/dL.
